# Legend:
# [1] = Inhibition of ENO1 in wild-type human LN319 cells incubated for 5 days by crystal violet staining based spectrophotometry
# [2] = Inhibition of ENO1 in overexpressed human D423 cells incubated for 5 days by crystal violet staining based spectrophotometry
# [3] = Inhibition of ENO1 in wild-type human LN319 cells incubated for 5 days in presence of 1 % oxygen by crystal violet staining based spectrophotometry
# [4] = Inhibition of ENO1 in wild-type human LN319 cells incubated for 5 days in presence of 21 % oxygen by crystal violet staining based spectrophotometry
# [5] = Inhibition of ENO1 in overexpressed human D423 cells incubated for 5 days in presence of 1 % oxygen by crystal violet staining based spectrophotometry
# [6] = Inhibition of ENO1 in overexpressed human D423 cells incubated for 5 days in presence of 21 % oxygen by crystal violet staining based spectrophotometry
SMILES,IC50 [1] [nM],IC50 [2] [nM],IC50 [3] [nM],IC50 [4] [nM],IC50 [5] [nM],IC50 [6] [nM]
O=C1C(P(=O)(O)O)CCCN1O (configuration not stated),> 100000,> 100000,,,,
CC(C)(C)C(=O)OCOP(=O)(OCOC(=O)C(C)(C)C)C1CCCN(O)C1=O (configuration not stated),2150,604,1810,2410,2810,720
CC(C)(C)C(=O)OCOP(=O)(NCc1ccccc1)C1CCCN(O)C1=O (configuration not stated),4020,3940,,,,
CC(=O)ON1CCCC(P(=O)(NCc2ccccc2)OCc2ccc([N+](=O)[O-])o2)C1=O (configuration not stated),,,,21100,5760,25900
Cn1c(COP(=O)(NCCBr)NCCBr)cnc1[N+](=O)[O-] [Evofosfamide],,,897,4840,301,2550

# — BindingDB's records for doi:10.1021/acsmedchemlett.0c00203 (University of Texas Md Anderson Cancer Center, 2020)
